Results reported in patent US20080176787A1, “Parathyroid hormone analogues and methods of use” (priority 2005, published 2008).
Positions of bridges follow the written chain, without caps; N, C: chain ends. Residues, ends and D or L forms follow the SMILES beside them.

Legend:
rats = test: Rat oncogenicity study, 104 weeks subcutaneous; assay type: in vivo; details: 0.5, 5, 30, and 50 μg/kg/day SC
Protocol: Prior art PTHs cause osteosarcomas in animals if administered over a course of two years. The PTH peptides of the present invention, including Ostabolin-C™ and PTH 1-30, are administered subcutaneously to rats for 104 weeks at doses of 0.5, 5, 30, and 50 μg/kg/day. The test article is administered subcutaneously. […] This difference could be due to the different amino acids sequences and/or to the different signalling pathways activated by the PTH molecules.

[1] = system: post-menopausal women with low bone mineral density; test: Phase II clinical study of subcutaneous Ostabolin-C in post-menopausal women with low BMD (BMD, bone markers, serum calcium, side effects)
Source text: A four month Phase II clinical study was undertaken to investigate the safety, tolerability and efficacy of Ostabolin-C™ in post-menopausal women with low bone mineral density (BMD). […] The clinical protocol is a 16-week phase II randomized, double-blind, placebo-controlled, parallel group, dose finding study to investigate the safety, tolerability and efficacy of Ostabolin-C™ in post-menopausal women with low bone mineral density (BMD). In this study, 261 patients underwent four months of daily dosing of placebo and four active groups. The active groups included daily administration of Ostabolin-C™ in doses of 7.5, 15, 30, and 45 μg. Ostabolin-C™ is formulated as a clear, colorless liquid provided in pre-filled syringes and injected subcutaneously (SC). Subjects self-administer SC 0.1 mL injections of their assigned dose of Ostabolin-C™ 7.5, 15, 30, and 45 μg or placebo daily for 16 weeks in rotating quadrants of the abdomen. The subjects were post-menopausal women (for at least 5 years) with moderate osteoporosis.
The key endpoints for the study include change in mean BMD at the lumbar spine, as assessed by dual energy x-ray absorptiometry (DEXA), and measured by change from the Baseline visit. The Baseline visit is the first visit of the patient, before undergoing any treatment. Secondary efficacy endpoints include the following, as measured by change from Baseline visit:
DEXA: Bone formation and resorption markers: • Mean femoral neck BMD • Serum osteocalcin • Mean trochanter BMD • Serum amino terminal pro-peptide of type 1 pro-collagen (P1NP) • Mean total hip BMD • Mean radial BMD (distal and midshaft) • Bone specific alkaline phosphatase (BSAP) • Bone mineral content (BMC) • Serum C-telopeptide (CTx) • Bone area • Serum N-telopeptide (NTx)

[2] = system: gonad-intact cynomolgus monkeys; test: 52-week (12 months) daily subcutaneous study in gonad-intact young cynomolgus monkeys: bone mass, histomorphometry, % cortical porosity; assay type: in vivo
Protocol: The peptide [Leu^27]cyclo[Glu^22-Lys^26]-hPTH-(1-31)-NH2 Ostabolin-C™ was administered daily by subcutaneous injection to gonad-intact cynomolgus monkeys (4/sex/group) at dose levels of 0, 2, 10 and 25 μg/kg for 52 weeks. Monkeys were 30 to 40 months of age (2.3-3.5 kg) at treatment start. Tibiae were retained for histomorphometry following labeling with calcein green 15 and 5 days prior to euthanasia. Bone mass, as measured by DXA (dual-energy x-ray absorptiometry) and QCT (quantitative computed tomography), was increased at the lumbar spine, femur and tibia. Changes in vertebral BMD (bone mineral density) translated into significant increases in bone strength. […] Tibial cancellous bone volume increased by more than 50% in all the peptide [Leu^27]cyclo[Glu^22-Lys^26]-hPTH-(1-31)-NH2 treated groups compared to controls and in the tibial mid-diaphysis, increases in cortical width and relative cortical area with concurrent decreases in medullary area were observed. […] Increases in indices of bone formation were associated with decreases in indices of bone resorption (decreased bone resorption markers, decreased osteoclast surface area, minimal cortical porosity), consistent with the uncoupling of these events. This combination of anabolic and anti-catabolic actions may have significant therapeutic value in the treatment of osteoporosis.
Comparative data regarding increase in cortical bone porosity in monkey subjects using Ostabolin C at a variety of doses and using the prior art PTHs 1-34 is shown below.

[3] = system: post-menopausal women with low bone mineral density; test: Dose/weight cutoff subgroup analysis and modeling of Phase II 30 and 45 μg cohorts; assay type: in vivo, human; parameters: Mean LS-BMD / FN-BMD / TH-BMD / P1NP / CTx: unit not given here
Protocol: The effect of the dose optimization strategy was evaluated by performing subgroup analyses using actual data from the 30 and 45 μg cohorts of the study (i.e. creation of a new subgroup by combining all patients below the weight cutoff from the 30 μg dose group with all patients above the weight cutoff from the 45 μg dose group, shown in the table below).
A variety of new subgroups were created out of the patients who participated in the Phase II clinical trial. The groups from Phase II are shown above, where each group received a single dose, either 7.5 μg, 15 μg, 30 μg, 45 μg, or placebo. The 30 μg and 45 μg dose groups were re-grouped, according to the weight of the patient, and over 100 new sub-groups were created. This approach of creating new sub-groups out of dosages which are relatively close to each other, is a novel way of conducting Phase II studies.
For the 105 patients who were originally given 30 or 45 μg, new groups were created by utilizing multiple weight cut-offs in increments of 0.5 kg. For example, one new group had the weight cut-off at 59 kg, meaning that every patient from the original low dose (30 μg) group who weighed less than 59 kg and every patient who weighed more than 59 kg from the original high dose (45 μg) group formed a new cohort. This new cohort represents a dose/weight cut-off of 59 kg, a group in which patients weighing less than 59 kg receive the low dose (30 μg) and patients weighing more than 59 kg receive the high dose (45 μg). Another example can be illustrated using a weight cutoff of 68 kg. Such a group would include all those patients who weigh less than 68 kg and who originally received the low dose (30 μg) as well as all those patients who weigh more than 68 kg and who originally received the high dose (45 μg). By using this method, over 100 separate cohorts were created by altering the dose/weight cut-off in increments of 0.5 kg. A summary of the data generated by these new dose/weight cut-off cohorts, using 68 kg and 59 kg as the dose/weight cut-off, is shown in the table below.
The table above illustrates the actual clinical profile obtained for two dose/weight cutoffs (59 kg which produces a higher exposure profile since more patients receive the higher dose and 68 kg in which more patients receive the lower dose). […] One problem with simple subgroup analysis is that endpoints with a small number of events can skew the observed profile because of large changes in incidence when one of these events moves from one side of the weight cutoff to the other. Therefore, the dose/weight cutoff methodology was applied systematically to the data from the 30 and 45 μg dose groups starting at the lowest weight patient in the study (corresponds to the 45 μg profile because everyone receives the high dose) and increasing the cutoff by 0.5 kg increments through 100 kg (corresponding to the 30 μg profile because everyone receives the low dose). The multiple cutoff profiles thus obtained when graphed can then smooth out the effect of individual events as illustrated for the effect on hypercalcemia. The effect of weight cutoff on clinical profile can then be modeled to eliminate the skewing effects of individual data points as illustrated in FIG. 37-40. This approach has been applied to primary and secondary endpoints in the study.
An important benefit of this modeling is that it is possible to project a clinical profile for a specific weight cutoff/dose exposure window with a high degree of accuracy since the effect of individual events is eliminated. The anticipated hypercalcemia and lumbar spine BMD profile for a 68 kg cutoff is illustrated in the table below, which compares the modeled hypercalcemia and lumbar spine BMD changes and the actual Phase II data for the 68 kg weight cutoff. It will also be possible to model the effects of even narrower exposure windows by using multiple dose cutoffs and different doses.

## PTH(1-30) (SVSEIQLMHNLGKHLNSMERVEWLRKKLQD; Parathyroid hormone; UniProt P01270 32-61, looked up, fragment) [PTH 1-30]
rats
  incidence of osteosarcomas compared to prior art PTH peptides: lower incidences of osteosarcomas

## CC[C@H](C)[C@H](NC(=O)[C@H](CCC(=O)O)NC(=O)[C@H](CO)NC(=O)[C@@H](NC(=O)[C@@H](N)CO)C(C)C)C(=O)N[C@@H](CCC(N)=O)C(=O)N[C@@H](CC(C)C)C(=O)N[C@@H](CCSC)C(=O)N[C@@H](Cc1c[nH]cn1)C(=O)N[C@@H](CC(N)=O)C(=O)N[C@@H](CC(C)C)C(=O)NCC(=O)N[C@@H](CCCCN)C(=O)N[C@@H](Cc1c[nH]cn1)C(=O)N[C@@H](CC(C)C)C(=O)N[C@@H](CC(N)=O)C(=O)N[C@@H](CO)C(=O)N[C@@H](CCSC)C(=O)N[C@@H](CCC(=O)O)C(=O)N[C@@H](CCCNC(=N)N)C(=O)N[C@H](C(=O)N[C@H]1CCC(=O)NCCCC[C@@H](C(=O)N[C@@H](CC(C)C)C(=O)N[C@@H](CC(C)C)C(=O)N[C@@H](CCC(N)=O)C(=O)N[C@@H](CC(=O)O)C(=O)N[C@H](C(N)=O)C(C)C)NC(=O)[C@H](CCCNC(=N)N)NC(=O)[C@H](CC(C)C)NC(=O)[C@H](Cc2c[nH]c3ccccc23)NC1=O)C(C)C [Ostabolin-C, [Leu^27]cyclo[Glu^22-Lys^26]-PTH-(1-31)-NH2] (H-SVSEIQLMHNLGKHLNSMERVEWLRKLLQDV-NH2; lactam 22-26)
[1]; 30 μg
  bone resorption stimulation as % of expected effect of 20 μg Forteo: approximately 50%
[1]; 30 μg (4 months)
  CTx: 1400 pM/L
  FN-BMD (%): −0.05%
  LS-BMD (%): 3.6%
  LS-BMD (%), subset with LS-BMD T score < −2.5: 4.51%
  P1NP: 50.0 µg/L
  TH-BMD (%): 0.06%
[1]; 30 ug, 4 months
  CTx: 30.6
  FN-BMD: −0.06
  LS-BMD 3%: 59.6
  LS-BMD 6%: 19.1
  Mean LS-BMD: 3.72
  P1NP: 117.2
  TH-BMD: 0.07
[1]; 45 μg
  BMD in the lumbar spine: increase in BMD
[1]; 45 μg (4 months)
  CTx: 2900 pM/L
  FN-BMD (%): 2.75%
  LS-BMD (%): 5.2%
  LS-BMD (%), subset with LS-BMD T score < −2.5: 5.9%
  P1NP: 79.5 µg/L
  TH-BMD (%): 1.45%
[1]; 45 μg For 15 Weeks
  Mean % Change In Femoral Neck (BMD): 2.75%
  Mean % Change In Total Hip (BMD): 1.44%
  Mean % Change In Trochanter (BMD): 2.24%
[1]; 45 ug, 4 months
  CTx: 60.3
  FN-BMD: 3.0
  LS-BMD 3%: 79.5
  LS-BMD 6%: 36.4
  Mean LS-BMD: 5.59
  P1NP: 160.5
  TH-BMD: 1.6
[1]; 7.5, 15, and 30 μg
  cortical BMD in distal and mid-shaft radius compared to placebo and Forteo: increases cortical BMD
[1]; 7.5, 15, and 30 μg daily, 15 weeks
  lumbar spine BMD: increase in lumbar spine BMD
[1]; low doses, 15 weeks
  hip, femoral neck, and trochanter BMD: mild BMD increase
[2]; 2, 10, 25 μg/kg SC daily, 52 weeks
  Bone mass (DXA, QCT) at lumbar spine, femur and tibia: increased
[2]; 52 weeks
  osteoclast surface: significant reduction
[2]; all treated groups (2, 10, 25 μg/kg SC daily, 52 weeks)
  Tibial cancellous bone volume increase compared to controls: more than 50%
[3]; 59 kg cut
  CTx: 57.5
  FN-BMD: 1.5
  LS-BMD 3%: 80.8
  LS-BMD 6%: 28.8
  P1NP: 143.5
  TH-BMD: 0.69
[3]; 59 kg cut (30 μg below, 45 μg above)
  Mean LS-BMD: 4.95
[3]; 68 kg cut
  CTx: 32.1
  FN-BMD: 0.29
  LS-BMD 3%: 78.0
  LS-BMD 6%: 29.3
  P1NP: 132.1
  TH-BMD: 0.40
[3]; 68 kg cut (30 μg below, 45 μg above)
  Mean LS-BMD: 4.65
[3]; 68 kg cutoff, modeled
  LS-BMD 3%: 76.5
  Mean LS-BMD: 4.57
